# Values of other authors as cited in patent publication US20110252579A1, “METHOD FOR TREATING FABRICS” (priority 2010, published 2011).
# Structures can show the parent of a compound that is named as a salt.
# Tested on: not given
# Conditions: in water
row,SMILES,water solubility
1,OCCOc1ccccc1 [2-phenoxyethanol],about 2.67%
2,OCCc1ccccc1 [2-phenylethanol],about 2%
3,"O=[N+]([O-])C1(Br)COCOC1 [Bronidox L, 5-bromo-5-nitro-1,3-dioxane]",about 0.46%
4,"O=[N+]([O-])C(Br)(CO)CO [Bronopol, 2-bromo-2-nitropropane-1,3-diol]",about 25%
5,"CC1(C)C(=O)N(CO)C(=O)N1CO [DMDM hydantoin, 1,3-bis(hydroxymethyl)-5,5-dimethyl-2,4-imidazolidinedione]",more than 50%
6,OCc1ccccc1 [benzyl alcohol],about 4%
7,"[H]/N=C(\N/C(=N/[H])NCCCCCCNC(=N)NC(=N)Nc1ccc(Cl)cc1)Nc1ccc(Cl)cc1 [chlorhexidine diacetate salt, 1,1′-hexamethylene bis(5-(p-chlorophenyl)biguanide), reference compound]",about 1.8%
8,"[H]/N=C(\N/C(=N/[H])NCCCCCCNC(=N)NC(=N)Nc1ccc(Cl)cc1)Nc1ccc(Cl)cc1 [chlorhexidine digluconate salt, 1,1′-hexamethylene bis(5-(p-chlorophenyl)biguanide), reference compound]",about 70%
9,"CC(C)(O)C(Cl)(Cl)Cl [chlorobutanol, 1,1,1-Trichloro-2-methylpropan-2-ol]",about 0.8%
10,[Na+].[O-][n+]1ccccc1[S-] [sodium pyrithione],about 50%

# Tested on: bacteria
# Conditions: not given
row,SMILES,antimicrobial spectrum
1,"CC1(C)C(=O)N(CO)C(=O)N1CO [DMDM hydantoin, 1,3-bis(hydroxymethyl)-5,5-dimethyl-2,4-imidazolidinedione]",mainly effective on bacteria

# Tested on: typical Gram negative and positive bacteria, fungi and yeasts
# Conditions: level from about 0.001% to about 0.5% by weight of the usage composition
row,SMILES,"effectiveness against Gram negative and positive bacteria, fungi and yeasts"
1,"Cn1sc2c(c1=O)CCC2 [Promexal, 2-methyl-4,5-trimethylene-4-isothiazolin-3-one]",effective
2,"O=c1[nH]sc2ccccc12 [Proxel, 1,2-benzisothiazolin-3-one]",effective
